Results as given in patent US10865222B2, “Neisseria gonorrhoeae therapeutic based on CMP-nonulosonate sugars” (priority 2014, dated 2020).
“Also recorded” adds a separate entry of the source.

Columns and labels:
[1] = biological target: T1, gonococcal LOS sialyltransferase (Lst) (Neisseria gonorrhoeae, UniProt P72074); format: cell-based, N. gonorrhoeae; conditions: CMP salt 30 μM (20 μg/ml), 2 h at 37° C.
T1 construct: served as substrates for gonococcal Lst in the context of live bacteria; endogenous in cells; host or cells: N. gonorrhoeae F62 ΔlgtD (live bacteria)
T1 sequence (P72074 whole entry): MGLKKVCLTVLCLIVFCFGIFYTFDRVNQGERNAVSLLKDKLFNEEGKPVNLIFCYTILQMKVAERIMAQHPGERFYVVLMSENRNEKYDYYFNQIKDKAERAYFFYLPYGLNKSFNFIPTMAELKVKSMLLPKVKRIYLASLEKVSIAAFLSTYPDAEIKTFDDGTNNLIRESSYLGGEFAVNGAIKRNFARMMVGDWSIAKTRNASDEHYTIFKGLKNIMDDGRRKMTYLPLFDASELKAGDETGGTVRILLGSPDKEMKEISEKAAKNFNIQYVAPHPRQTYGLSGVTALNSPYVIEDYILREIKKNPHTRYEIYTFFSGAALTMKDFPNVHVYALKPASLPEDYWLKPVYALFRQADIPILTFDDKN
Protocol: FIG. 1. Substrate specificity of gonococcal LOS sialyltransferase (Lst) N. gonorrhoeae strain F62 ΔIgtD was grown in standard gonococcal liquid media alone (‘No sialic acid’) or in media supplemented with CMP salts of the indicated sialic acid or nonulosonic acid, each at a concentration of 20 μg/ml (˜30 μM), for 2 h at 37° C. Bacteria were washed, pellets treated with protease K, lysed in 4×LDS buffer and lysates were separated on 12% Bis-Tris gels using MES running buffer. LOS was transferred to a PVDF membrane and probed with mAb 3F11 that recognizes the lacto-N-neotetraose only in the non-sialylated state; the addition of a sialic acid or nonulosonate residue abrogates mAb 3F11 binding (upper panel). LOS was also visualized by silver staining (middle panel). Sialylation or nonulosonate (NulO) modification was also quantified using whole cell ELISA with mAb 3F11 (lower graph).
To define the substrate specificity of gonococcal LOS sialyltransferase, N. gonorrhoeae F62 ΔIgtD was grown in media alone, or media that contained the CMP-activated derivatives of 7 nonulosonates (listed in Table 1), each at a concentration of 30 μM (20 μg/ml). Following incubation for 2 h at 37° C., bacteria were washed, lysed with protease K/LDS sample buffer and separated on 12% Bis-tris gels. Blots were probed with mAb 3F11, which binds to the terminal lactosamine residue of lacto-N-neotetraose (LNT); any extension beyond the terminal Gal (in this instance with a nonose) would abrogate 3F11 binding. […] Whole cell ELISA with mAb 3F11 confirmed results of western blotting (FIG. 1, lower graph).
Bacteria (F62 ΔIgtD) grown overnight on chocolate agar plates were suspended in gonococcal liquid media supplemented with IsoVitaleX (11) that contained specified concentrations of the CMP-nonulosonate. Bacteria were then incubated at 37° C. for the period specified in each experiment.
Gonococcal lysates treated with protease K (100 μg/ml) and NuPAGE® LDS Sample Buffer (4×) (Invitrogen) were separated on NuPAGE® 12% Bis-Tris (Invitrogen) gels using Novex® MES running buffer (Invitrogen) followed by sliver staining with the Bio-Rad Silver Stain Kit, or were transferred to an Immobilon PVDF membrane (Millipore). Membranes were blocked with PBS/1% milk and probed with tissue culture supernatants that contained mAb 3F11. mAb 3F11-reactive LOS bands were disclosed with anti-mouse IgM conjugated to alkaline phosphatase followed by the addition of BCIP®/NBT-Purple Liquid Substrate (Sigma).

[2] = biological target: T2, Lst sialyltransferase from N. gonorrhoeae F62 (Neisseria gonorrhoeae, UniProt P72074); test: Lst sialyltransferase acceptor specificity with CMP-Neu5Ac and CMP-Leg5Ac7Ac donors (TLC); format: biochemical; conditions: for removal of the nonulosonate from modified LacNAc acceptors by Lst over time: 2 h versus 20 h
T2 construct: made in house; host or cells: Escherichia coli
T2 sequence (P72074 whole entry): as above
Protocol: (§1) FIG. 11. N. gonorrhoeae Lst sialyltransferase efficiently legylates a LacNAc acceptor. The acceptor specificity of N. gonorrhoeae Lst sialyltransferase was assessed using CMP-Neu5Ac and CMP-Leg5Ac7Ac donors. The various acceptors tested were LacNAc or Galβ-1,4-GlcNAc-β-FCHASE, Lacto-N-biose or Galβ-1,3-GlcNAc-β-FCHASE, TAg or Galβ-1,3-GalNAc-α-FCHASE, and Pk or Galα-1,4-Galβ-1,4-Glc-β-FCHASE. Lst enzyme preparations (2.5 μg per assay) were incubated with 2.5 pmoles of each acceptor with either 3 mM CMP-Neu5Ac or 3 mM CMP-Leg5Ac7Ac for either 2 or 20 h as indicated. Reactions were then examined by TLC. Arrows indicate the general vicinity of FCHASE acceptors (top spots), whereas arrowheads indicate the general vicinity of modified FCHASE acceptors (bottom spots—enzyme product).
as §1, with “The” for “FIG. 11. N. gonorrhoeae Lst sialyltransferase efficiently legylates a LacNAc acceptor. The”, “product) (FIG. 11).” for “product).”
Lst sialyltransferase from N. gonorrhoeae F62 was recombinantly produced in Escherichia coli. Total membranes were isolated by ultracentrifugation at 100,000×g, resuspended in 0.2% Triton X-100, 50 mM Tris pH 7.5, 100 mM NaCl and incubated for 2 h at 4° C. […] N. gonorrhoeae Lst enzymatic assays were performed using 2.5 pmoles of 4 different FCHASE acceptors; LacNAc or Galβ-1,4-GlcNAc-β-FCHASE, Lacto-N-biose or Galβ-1,3-GlcNAc-β-FCHASE, TAg or Galβ-1,3-GalNAc-α-FCHASE, Pk or Galα-1,4-Galβ-1,4-Glc-β-FCHASE. CMP-Neu5Ac donor assays contained 50 mM Tris pH 7.5, whereas CMP-Leg5Ac7Ac donor assays contained 50 mM MES pH 6. All reactions contained 10 mM MnCl2, 3 mM CMP-sugar donor and 2.5 μg Lst enzyme. Reactions were incubated at 30° C. for either 2 h or 20 h as indicated. Upon completion of the reactions, stop solution was added (final concentration of 0.5% SDS, 5 mM EDTA, 25% acetonitrile) and an aliquot was run on TLC using EtOAc:MeOH:H2O:HOAc 4:2:1:0.1 as the mobile phase.

## CC(=O)N[C@H]1[C@H]([C@H](O)[C@H](O)CN=[N+]=[N-])OC(OP(=O)(O)OC[C@H]2O[C@@H](n3ccc(N)nc3=O)[C@H](O)[C@@H]2O)(C(=O)O)C[C@@H]1O (stereo partly drawn) [CMP-Neu5Ac9Az, CMP-5-acetamido-9-azido-3,5,9-trideoxy-D-glycero-D-galacto-nonulosonic acid]
[1]
  mAb 3F11 binding / incorporation of nonulosonate onto LNT LOS (use as Lst substrate): decreased binding of mAb 3F11

## CC(=O)N[C@H]1[C@H]([C@H](O)[C@H](O)COC(C)=O)OC(OP(=O)(O)OC[C@H]2O[C@@H](n3ccc(N)nc3=O)[C@H](O)[C@@H]2O)(C(=O)O)C[C@@H]1O (stereo partly drawn) [CMP-Neu5Ac9Ac, CMP-5-acetamido-9-O-acetyl-3,5-dideoxy-D-glycero-D-galacto-nonulosonic acid]
[1]
  mAb 3F11 binding / incorporation of nonulosonate onto LNT LOS (use as Lst substrate): decreased binding of mAb 3F11

## 5,7-diacetamido-3,5,7,9-tetradeoxy-D-glycero-D-galacto-nonulosonic acid [CMP-Leg5Ac7Ac]
[2]; 3 mM CMP-sugar donor, 2.5 μg Lst
  product conversion of LacNAc acceptor: ~100%
[2]
  removal of the nonulosonate from modified LacNAc acceptors by Lst over time: this was not observed
[1]
  mAb 3F11 binding / incorporation of nonulosonate onto LNT LOS (use as Lst substrate): decreased binding of mAb 3F11; also recorded: least incorporated

## CC(=O)NC1C(O)CC(OP(=O)(O)OCC2OC(n3ccc(N)nc3=O)C(O)C2O)(C(=O)O)OC1C(O)C(O)CO [CMP-Neu5Ac, CMP-5-acetamido-3,5-dideoxy-D-glycero-D-galacto-nonulosonic acid, reference compound]
[2]; 3 mM CMP-sugar donor, 2 or 20 h
  utilization of Lacto-N-biose, TAg and Pk acceptors: all but TAg could be efficiently utilized
[2]
  removal of the nonulosonate from modified LacNAc acceptors by Lst over time: can remove Neu5Ac from modified LacNAc acceptors over time
[1]
  mAb 3F11 binding / incorporation of nonulosonate onto LNT LOS (use as Lst substrate): decreased binding of mAb 3F11

## COC(CO)C(O)C1OC(OP(=O)(O)OCC2OC(n3ccc(N)nc3=O)C(O)C2O)(C(=O)O)CC(O)C1NC(=O)CO [CMP-Neu5Gc8Me, CMP-5-hydroxyacetamido-8-O-methyl-3,5-dideoxy-D-glycero-D-galacto-nonulosonic acid]
[1]
  mAb 3F11 binding / incorporation of nonulosonate onto LNT LOS (use as Lst substrate): decreased binding of mAb 3F11
